# According to PubChem BioAssay (NCI):
#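 GI50 = concentration required for 50% inhibition of growth. TGI: total growth inhibition.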
# What was measured:
# Test in all cases: DTP human tumour cell line panel, 384-well format
# U251 glioblastoma = tested on: U251 glioblastoma
# HL-60(TB) leukemia = tested on: HL-60(TB) leukemia
# OVCAR-5 ovarian = tested on: OVCAR-5 ovarian
# SK-MEL-28 melanoma = tested on: SK-MEL-28 melanoma
# MDA-MB-231 breast = tested on: MDA-MB-231 breast
# COLO 205 colon = tested on: COLO 205 colon
# HOP-62 NSCLC = tested on: HOP-62 NSCLC
# NCI-H522 lung = tested on: NCI-H522 lung
# SF-295 CNS = tested on: SF-295 CNS
# HS 578T breast = tested on: HS 578T breast
# TK-10 renal = tested on: TK-10 renal
# HCC-2998 colon = tested on: HCC-2998 colon
# NCI-H226 lung = tested on: NCI-H226 lung
# IGROV1 ovarian = tested on: IGROV1 ovarian
# RPMI-8226 leukemia = tested on: RPMI-8226 leukemia
# A498 renal = tested on: A498 renal
# UO-31 renal = tested on: UO-31 renal
# NCI-H23 lung = tested on: NCI-H23 lung
# CAKI-1 renal = tested on: CAKI-1 renal
# OVCAR-3 ovarian = tested on: OVCAR-3 ovarian
# NCI-H322M lung = tested on: NCI-H322M lung
# LOX IMVI melanoma = tested on: LOX IMVI melanoma
# OVCAR-4 ovarian = tested on: OVCAR-4 ovarian
# SK-MEL-5 melanoma = tested on: SK-MEL-5 melanoma
# A549 NSCLC = tested on: A549 NSCLC
# SF-539 CNS = tested on: SF-539 CNS
# CCRF-CEM leukemia = tested on: CCRF-CEM leukemia
# SNB-19 CNS = tested on: SNB-19 CNS
# MOLT-4 leukemia = tested on: MOLT-4 leukemia
# SNB-75 CNS = tested on: SNB-75 CNS
# UACC-62 melanoma = tested on: UACC-62 melanoma
# SK-OV-3 ovarian = tested on: SK-OV-3 ovarian
# MALME-3M melanoma = tested on: MALME-3M melanoma
# HT29 colon = tested on: HT29 colon
# NCI/ADR-RES ovarian = tested on: NCI/ADR-RES ovarian
# SR leukemia = tested on: SR leukemia
# RXF 393 renal = tested on: RXF 393 renal
# 786-0 renal = tested on: 786-0 renal
# SN12C renal = tested on: SN12C renal
# HCT-15 colon = tested on: HCT-15 colon
# MDA-MB-468 breast = tested on: MDA-MB-468 breast
# K-562 leukemia = tested on: K-562 leukemia
# NCI-H460 NSCLC = tested on: NCI-H460 NSCLC
# HOP-92 NSCLC = tested on: HOP-92 NSCLC
# ACHN renal = tested on: ACHN renal
# M14 melanoma = tested on: M14 melanoma
# BT-549 breast = tested on: BT-549 breast
# T-47D breast = tested on: T-47D breast
# SF-268 CNS = tested on: SF-268 CNS
# SW-620 colon = tested on: SW-620 colon
# DU-145 prostate = tested on: DU-145 prostate
# UACC-257 melanoma = tested on: UACC-257 melanoma
# PC-3 prostate = tested on: PC-3 prostate
# MDA-MB-435 melanoma = tested on: MDA-MB-435 melanoma
# KM12 colon = tested on: KM12 colon
# EKVX NSCLC = tested on: EKVX NSCLC
# OVCAR-8 ovarian = tested on: OVCAR-8 ovarian
# MCF7 breast = tested on: MCF7 breast
smiles,measurement,setting,value
CN(Cc1cnc2nc(N)nc(N)c2n1)c1ccc(C(=O)N[C@@H](CCC(=O)O)C(=O)O)cc1,GI50,U251 glioblastoma,31.7 nM
same,TGI,HL-60(TB) leukemia,< 14.2 nM
same,TGI,OVCAR-5 ovarian,< 15.4 nM
same,GI50,SK-MEL-28 melanoma,27.7 nM
same,TGI,SK-MEL-28 melanoma,60.7 nM
same,GI50,MDA-MB-231 breast,263 nM
same,TGI,MDA-MB-231 breast,680 nM
same,GI50,COLO 205 colon,51.3 nM
same,TGI,COLO 205 colon,95900 nM
same,GI50,HOP-62 NSCLC,37.5 nM
same,TGI,HOP-62 NSCLC,123 nM
same,GI50,NCI-H522 lung,32 nM
same,TGI,NCI-H522 lung,543 nM
same,GI50,SF-295 CNS,< 13.5 nM
same,TGI,SF-295 CNS,< 20.9 nM
same,GI50,HS 578T breast,< 15.1 nM
same,TGI,HS 578T breast,31.6 nM
same,GI50,TK-10 renal,23.6 nM
same,TGI,TK-10 renal,52.3 nM
same,GI50,HCC-2998 colon,39.1 nM
same,GI50,NCI-H226 lung,28.9 nM
same,GI50,IGROV1 ovarian,28.6 nM
same,GI50,RPMI-8226 leukemia,17.3 nM
same,TGI,RPMI-8226 leukemia,42.1 nM
same,GI50,A498 renal,< 18.8 nM
same,TGI,A498 renal,232 nM
same,GI50,UO-31 renal,29.5 nM
same,TGI,UO-31 renal,9760 nM
same,GI50,NCI-H23 lung,30.4 nM
same,TGI,NCI-H23 lung,308 nM
same,GI50,CAKI-1 renal,26.3 nM
same,TGI,CAKI-1 renal,73.8 nM
same,GI50,OVCAR-3 ovarian,< 14.8 nM
same,TGI,OVCAR-3 ovarian,27.6 nM
same,GI50,NCI-H322M lung,< 12.6 nM
same,TGI,NCI-H322M lung,22.6 nM
same,TGI,LOX IMVI melanoma,14 nM
same,TGI,OVCAR-4 ovarian,66.5 nM
same,GI50,SK-MEL-5 melanoma,130 nM
same,TGI,SK-MEL-5 melanoma,87300 nM
same,TGI,A549 NSCLC,17.8 nM
same,TGI,SF-539 CNS,13600 nM
same,TGI,CCRF-CEM leukemia,< 11.3 nM
same,GI50,SNB-19 CNS,< 19.7 nM
same,TGI,MOLT-4 leukemia,18.1 nM
same,GI50,SNB-75 CNS,< 12.9 nM
same,TGI,SNB-75 CNS,< 28.3 nM
same,GI50,UACC-62 melanoma,18.9 nM
same,GI50,SK-OV-3 ovarian,1450 nM
same,GI50,MALME-3M melanoma,< 15.3 nM
FC(F)(c1ccc2ncccc2c1)c1nnc2ccc(-c3ccncc3)nn12,GI50,HT29 colon,185 nM
same,TGI,HT29 colon,> 100000 nM
same,GI50,OVCAR-5 ovarian,112 nM
same,TGI,OVCAR-5 ovarian,> 100000 nM
same,GI50,SF-295 CNS,< 10 nM
same,TGI,SF-295 CNS,108 nM
same,GI50,HS 578T breast,< 10 nM
same,TGI,HS 578T breast,137 nM
same,GI50,HCC-2998 colon,< 10 nM
same,TGI,HCC-2998 colon,> 100000 nM
same,GI50,NCI/ADR-RES ovarian,460 nM
same,TGI,NCI/ADR-RES ovarian,27200 nM
same,GI50,SR leukemia,< 10 nM
same,TGI,SR leukemia,126 nM
same,GI50,RXF 393 renal,11.2 nM
same,TGI,RXF 393 renal,206 nM
same,GI50,RPMI-8226 leukemia,< 10 nM
same,GI50,786-0 renal,191 nM
same,TGI,786-0 renal,> 100000 nM
same,GI50,SN12C renal,33 nM
same,TGI,SN12C renal,> 100000 nM
same,GI50,NCI-H322M lung,< 10 nM
same,TGI,NCI-H322M lung,> 100000 nM
same,GI50,HCT-15 colon,55.7 nM
same,TGI,HCT-15 colon,> 100000 nM
same,GI50,SF-539 CNS,164 nM
same,TGI,SF-539 CNS,> 100000 nM
same,GI50,MDA-MB-468 breast,22 nM
same,TGI,MDA-MB-468 breast,628 nM
same,GI50,K-562 leukemia,219 nM
same,TGI,K-562 leukemia,> 100000 nM
same,GI50,NCI-H460 NSCLC,< 10 nM
same,TGI,NCI-H460 NSCLC,> 100000 nM
same,GI50,MOLT-4 leukemia,10.2 nM
same,TGI,MOLT-4 leukemia,183 nM
CC(C)c1cnn2c(NCc3ccccc3)cc(NC[C@H]3CCNC[C@@H]3O)nc12,GI50,HT29 colon,330 nM
same,TGI,HT29 colon,10700 nM
same,GI50,HOP-92 NSCLC,382 nM
same,TGI,HOP-92 NSCLC,2340 nM
same,GI50,HL-60(TB) leukemia,156 nM
same,TGI,HL-60(TB) leukemia,291 nM
same,GI50,OVCAR-5 ovarian,246 nM
same,TGI,OVCAR-5 ovarian,770 nM
same,GI50,ACHN renal,782 nM
same,TGI,ACHN renal,11200 nM
same,GI50,SK-MEL-28 melanoma,226 nM
same,TGI,SK-MEL-28 melanoma,1130 nM
same,GI50,MDA-MB-231 breast,290 nM
same,TGI,MDA-MB-231 breast,1730 nM
same,GI50,COLO 205 colon,133 nM
same,TGI,COLO 205 colon,411 nM
same,GI50,HOP-62 NSCLC,131 nM
same,TGI,HOP-62 NSCLC,346 nM
same,GI50,M14 melanoma,292 nM
same,TGI,M14 melanoma,1190 nM
same,GI50,NCI-H522 lung,164 nM
same,TGI,NCI-H522 lung,1680 nM
same,GI50,SF-295 CNS,419 nM
same,TGI,SF-295 CNS,3460 nM
same,GI50,BT-549 breast,241 nM
same,TGI,BT-549 breast,519 nM
same,GI50,T-47D breast,404 nM
same,TGI,T-47D breast,3740 nM
same,GI50,HS 578T breast,214 nM
same,TGI,HS 578T breast,501 nM
same,GI50,TK-10 renal,2980 nM
same,TGI,TK-10 renal,14000 nM
same,GI50,HCC-2998 colon,223 nM
same,TGI,HCC-2998 colon,787 nM
same,GI50,NCI-H226 lung,193 nM
same,TGI,NCI-H226 lung,675 nM
same,GI50,IGROV1 ovarian,332 nM
same,TGI,IGROV1 ovarian,2870 nM
same,GI50,NCI/ADR-RES ovarian,13800 nM
same,TGI,NCI/ADR-RES ovarian,28900 nM
same,GI50,SR leukemia,23.5 nM
same,TGI,SR leukemia,103 nM
same,GI50,RXF 393 renal,251 nM
same,TGI,RXF 393 renal,635 nM
same,GI50,SF-268 CNS,173 nM
same,TGI,SF-268 CNS,411 nM
same,GI50,SW-620 colon,167 nM
same,TGI,SW-620 colon,1660 nM
same,GI50,RPMI-8226 leukemia,16.9 nM
same,TGI,RPMI-8226 leukemia,56.5 nM
same,GI50,DU-145 prostate,111 nM
same,TGI,DU-145 prostate,1780 nM
same,GI50,A498 renal,157 nM
same,TGI,A498 renal,599 nM
same,GI50,UO-31 renal,3870 nM
same,TGI,UO-31 renal,14800 nM
same,GI50,786-0 renal,211 nM
same,TGI,786-0 renal,1520 nM
same,GI50,UACC-257 melanoma,371 nM
same,TGI,UACC-257 melanoma,1660 nM
same,GI50,SN12C renal,168 nM
same,TGI,SN12C renal,841 nM
same,GI50,NCI-H23 lung,167 nM
same,TGI,NCI-H23 lung,644 nM
same,GI50,CAKI-1 renal,317 nM
same,TGI,CAKI-1 renal,2820 nM
same,GI50,OVCAR-3 ovarian,105 nM
same,TGI,OVCAR-3 ovarian,578 nM
same,GI50,NCI-H322M lung,291 nM
same,TGI,NCI-H322M lung,975 nM
same,GI50,PC-3 prostate,271 nM
same,TGI,PC-3 prostate,985 nM
same,GI50,MDA-MB-435 melanoma,409 nM
same,TGI,MDA-MB-435 melanoma,1450 nM
same,GI50,KM12 colon,128 nM
same,TGI,KM12 colon,541 nM
same,GI50,LOX IMVI melanoma,84.5 nM
same,TGI,LOX IMVI melanoma,260 nM
same,GI50,EKVX NSCLC,467 nM
same,TGI,EKVX NSCLC,2530 nM
same,GI50,HCT-15 colon,1300 nM
same,TGI,HCT-15 colon,8560 nM
same,GI50,OVCAR-4 ovarian,154 nM
same,TGI,OVCAR-4 ovarian,475 nM
same,GI50,OVCAR-8 ovarian,249 nM
same,TGI,OVCAR-8 ovarian,973 nM
same,GI50,SK-MEL-5 melanoma,242 nM
same,TGI,SK-MEL-5 melanoma,655 nM
same,GI50,SF-539 CNS,107 nM
same,TGI,SF-539 CNS,345 nM
same,GI50,MDA-MB-468 breast,328 nM
same,TGI,MDA-MB-468 breast,662 nM
same,GI50,K-562 leukemia,389 nM
same,TGI,K-562 leukemia,1960 nM
same,GI50,NCI-H460 NSCLC,22.6 nM
same,TGI,NCI-H460 NSCLC,64.6 nM
same,GI50,CCRF-CEM leukemia,213 nM
same,TGI,CCRF-CEM leukemia,380 nM
same,GI50,SNB-19 CNS,410 nM
same,TGI,SNB-19 CNS,10500 nM
same,GI50,MCF7 breast,113 nM
same,TGI,MCF7 breast,474 nM
same,GI50,MOLT-4 leukemia,122 nM
same,TGI,MOLT-4 leukemia,267 nM
same,GI50,SNB-75 CNS,789 nM
same,TGI,SNB-75 CNS,2040 nM
same,GI50,UACC-62 melanoma,57.8 nM
same,TGI,UACC-62 melanoma,238 nM
same,GI50,SK-OV-3 ovarian,360 nM
same,TGI,SK-OV-3 ovarian,6890 nM
same,GI50,MALME-3M melanoma,345 nM
same,TGI,MALME-3M melanoma,1800 nM
